Laboratory results reported in patent publication US12708116B2, “Herbicidal compositions comprising 2,4-D” (BASF SE, priority 2023, dated 2026).

What was measured:
Assay in all cases: Post-emergence application in field trials
[1] = tested on: ECHCG; type: in vivo, Echinochloa crus-galli
[2] = tested on: SETVI; type: in vivo, Setaria viridis; settings: 15 DAT; g ai/ha A-1 12.5, B-5 1066, C-10 840; growth stage 13-19; height 2-18 cm; water volume 140 l/ha
[3] = tested on: AMAPA; settings: 14 DAT, growth stage 12-24, height 5-30 cm, water volume 140 l/ha
[4] = tested on: DIGSA
[5] = tested on: ZEAMX; settings: growth stage 15-16
[6] = tested on: HORVW; settings: growth stage 23-29, height 20-25 cm
[7] = tested on: CYPES; settings: 21 DAT, water volume 140 l/ha
[8] = tested on: DATST; settings: Example 6; 21 DAT; g ai/ha A-1 12.5, B-5 1066, C-11 400
[9] = tested on: SETVE; settings: Example 6, g ai/ha A-1 12.5, B-5 1066, C-11 400, growth stage 21-23, height 10-15 cm
[10] = Example 11, 21 DAT, g ai/ha A-1 12.5, B-4 1066, C-4 12.5, height 50-60 cm
[11] = Example 11, 21 DAT, g ai/ha A-1 12.5, B-4 1066, C-4 12.5
[12] = Example 7, 28 DAT, g ai/ha A-1 12.5, B-4 1066, C-11 400, growth stage 23-30, height 15-20 cm
[13] = Example 9, 28 DAT, g ai/ha A-1 12.5, B-4 1066, C-12 252, growth stage 23-30, height 15-20 cm
[14] = Example 7, 28 DAT, g ai/ha A-1 12.5, B-4 1066, C-11 400, height 50-60 cm
[15] = Example 9, 28 DAT, g ai/ha A-1 12.5, B-4 1066, C-12 252, height 50-60 cm
[16] = Example 7, 28 DAT, g ai/ha A-1 12.5, B-4 1066, C-11 400
[17] = Example 9, 21 DAT, g ai/ha A-1 12.5, B-4 1066, C-12 252

O=C(O)CNCP(=O)(O)O [C-10, glyphosate-potassium]
% Herbicidal activity ([1]; 13 DAT, g ai/ha A-1 12.5, B-5 1066, C-10 840, growth stage 21-26, height 15-30 cm, water volume 187 l/ha): 90%
% Herbicidal activity ([1]; 13 DAT, g ai/ha A-1 25, B-5 1066, C-10 840, growth stage 21-26, height 15-30 cm, water volume 187 l/ha): 90%
% Herbicidal activity ([1]; 13 DAT, g ai/ha A-1 50, B-5 1066, C-10 840, growth stage 21-26, height 15-30 cm, water volume 187 l/ha): 90%
% Herbicidal activity [2]: 93%
% Herbicidal activity ([3]; g ai/ha A-1 12.5, B-5 1066, C-10 840): 22%
% Herbicidal activity ([3]; g ai/ha A-1 25, B-5 1066, C-10 840): 22%
% Herbicidal activity ([4]; 15 DAT, g ai/ha A-1 12.5, B-5 1066, C-10 840, growth stage 13-19, height 2-13 cm, water volume 140 l/ha): 93%

C#CCN1C(=O)C(F)(F)Oc2cc(F)c(-n3c(=O)n(C)c(=S)n(C)c3=O)cc21 [C-4, trifludimoxazin]
% Herbicidal activity ([1]; Example 10, 21 DAT, g ai/ha A-1 12.5, B-5 1066, C-4 12.5, growth stage 23-30, height 15-20 cm): 30%
% Herbicidal activity [5, 10]: 30%
% Herbicidal activity ([6]; Example 10, 21 DAT, g ai/ha A-1 12.5, B-5 1066, C-4 12.5): 30%
% Herbicidal activity [6, 11]: 20%

CNC.O=C(O)COc1ccc(Cl)cc1Cl [B-4, 2,4-D-dimethylammonium]
% Herbicidal activity [1, 12]: 0%
% Herbicidal activity [1, 13]: 0%
% Herbicidal activity ([5]; Example 5, 21 DAT, g ai/ha A-1 12.5, B-4 1066, height 50-60 cm): 0%
% Herbicidal activity [5, 14]: 0%
% Herbicidal activity [5, 15]: 0%
% Herbicidal activity [5, 10]: 0%
% Herbicidal activity ([6]; Example 5, 7 DAT, g ai/ha A-1 12.5, B-4 1066): 0%
% Herbicidal activity [6, 16]: 0%
% Herbicidal activity [6, 17]: 0%
% Herbicidal activity [6, 11]: 0%

CP(=O)(O)CCC(N)C(=O)O (centres unmarked) [C-11, glufosinate-ammonium]
% Herbicidal activity ([1]; Example 6, 7 DAT, g ai/ha A-1 12.5, B-5 1066, C-11 400, growth stage 23-30, height 15-20 cm): 30%
% Herbicidal activity ([1]; Example 6, 28 DAT, g ai/ha A-1 12.5, B-5 1066, C-11 400, growth stage 23-30, height 15-20 cm): 70%
% Herbicidal activity [1, 12]: 60%
% Herbicidal activity ([4]; 21 DAT, g ai/ha A-1 12.5, B-5 1066, C-11 655, height 2-8 cm, water volume 140 l/ha): 49%
% Herbicidal activity ([4]; 21 DAT, g ai/ha A-1 25, B-5 1066, C-11 655, height 2-8 cm, water volume 140 l/ha): 49%
% Herbicidal activity ([4]; 21 DAT, g ai/ha A-1 50, B-5 1066, C-11 655, height 2-8 cm, water volume 140 l/ha): 49%
% Herbicidal activity ([4]; Example 6, 7 DAT, g ai/ha A-1 12.5, B-5 1066, C-11 400, growth stage 21-22, height 15-20 cm): 25%
% Herbicidal activity ([4]; Example 6, 21 DAT, g ai/ha A-1 12.5, B-5 1066, C-11 400, growth stage 21-22, height 15-20 cm): 20%
% Herbicidal activity ([7]; g ai/ha A-1 12.5, B-5 1066, C-11 655): 18%
% Herbicidal activity ([7]; g ai/ha A-1 50, B-5 1066, C-11 655): 18%
% Herbicidal activity [8]: 50%
% Herbicidal activity ([5]; Example 6, 7 DAT, g ai/ha A-1 12.5, B-5 1066, C-11 400, height 25-30 cm): 40%
% Herbicidal activity ([5]; Example 6, 28 DAT, g ai/ha A-1 12.5, B-5 1066, C-11 400, height 50-60 cm): 70%
% Herbicidal activity [5, 14]: 40%
% Herbicidal activity ([9]; 7 DAT): 55%
% Herbicidal activity ([9]; 21 DAT): 40%
% Herbicidal activity ([6]; Example 6, 28 DAT, g ai/ha A-1 12.5, B-5 1066, C-11 400): 30%
% Herbicidal activity [6, 16]: 10%

CP(=O)(O)CC[C@H](N)C(=O)O.N [C-12, glufosinate-P-ammonium]
% Herbicidal activity ([1]; Example 8, 7 DAT, g ai/ha A-1 12.5, B-5 1066, C-12 252, growth stage 23-30, height 15-20 cm): 50%
% Herbicidal activity ([1]; Example 8, 21 DAT, g ai/ha A-1 12.5, B-5 1066, C-12 252, growth stage 23-30, height 15-20 cm): 70%
% Herbicidal activity ([1]; Example 8, 28 DAT, g ai/ha A-1 12.5, B-5 1066, C-12 252, growth stage 23-30, height 15-20 cm): 60%
% Herbicidal activity [1, 13]: 60%
% Herbicidal activity ([5]; Example 8, 28 DAT, g ai/ha A-1 12.5, B-5 1066, C-12 252, height 50-60 cm): 70%
% Herbicidal activity [5, 15]: 60%
% Herbicidal activity ([6]; Example 8, 21 DAT, g ai/ha A-1 12.5, B-5 1066, C-12 252): 20%
% Herbicidal activity [6, 17]: 60%
